Measured values taken from US20240358705A1, “COMPOSITIONS AND METHODS FOR TREATMENT OF CANCER” (Board of Supervisors of Louisiana State University and …, priority 2021, published 2024).

Key:
[1] = tested on: CD8 T cells; assay: CFSE labeling and T cell proliferation; format: cell-based, mouse; details: 72 hours
Description: Lymph nodes and spleen were isolated from wild-type C57BL/6N mice. Tissue was mechanically dissociated with the back of a syringe plunger and passed through a […] filter. […] Treated cells were incubated at 37° C., 5% CO2 for the designed study duration. Isolated CD3 T cells were labeled with 1 μM CFDA SE (Thermo #V12883) for 15 minutes at 37° C. protected from light. […] Cells were pelleted, resuspended and plated in an antibody coated well with the indicated drug concentrations at time zero. Activated T cells were incubated at 37° C., 5% CO2 for 72 hours. After study duration, T cells were stained with anti-CD4, anti-CD8, anti-CD3 following the immune profiling by flow cytometry method and proliferation was measured by CFSE dilution.

[2] = tested on: CD3 T cells; assay: Granzyme B and perforin immunoblot; format: cell-based, mouse; details: for granzyme B protein production, increase compared to DMSO / granzyme B, Log2 fold change compared to DMSO / perforin production, increase compared to DMSO / perforin, Log2 fold change compared to DMSO: 72 hours
Description: (§1) Lymph nodes and spleen were isolated from wild-type C57BL/6N mice. Tissue was mechanically dissociated with the back of a syringe plunger and passed through a 70 M filter. […] Treated cells were incubated at 37° C., 5% CO2 for the designed study duration.

[3] = tested on: CD4 T cells; assay: Annexin/PI apoptosis staining, CD4; format: cell-based, mouse; details: 3 μM or 10 μM, 72 hours, vs DMSO
Description: as §1
Treated CD3 T cells were prepared following the in vitro T cell activation method and incubated for 72 hours at 37° C., 5% CO2.

[4] = tested on: BM-MDSCs; assay: Arginase-I and iNOS immunoblot in BM-MDSCs; format: cell-based, mouse; details: for arginase-I levels, reduction compared to DMSO / iNOS production, reduction compared to DMSO: 72 hours
Description: Bone marrow cells were isolated by flushing the tibia and femurs of wild-type C57BL/6N mice. […] To generate BM-MDSCs, 3×10^6 cells were plated in a 6-well dish and incubated at 37° C., 5% CO2 for 96 hours. For treatment, drugs were administered at either 3 μM or 10 μM concentrations and added to the BM-MDSC cell culture well 24 hours after plating.
Protein concentration was quantified using a BCA protein assay kit (Thermo #A53225). […] of protein diluted with 1×LDS sample buffer (Life Technologies #B0008) and 1×sample reducing agent (Life Technologies #B0009), were denatured at 95° C. for 5 minutes. Denatured T cell protein was resolved using a 10% Bolt Bis-Tris plus protein gel (Thermo #NW00102BOX) and denatured BM-MDSC protein was resolved using an 8% Bolt Bis-Tris plus protein gel (Thermo #NW00082BOX). Gels were transferred to a PVDF membrane (Invitrogen #IB401002) using a seven-minute P3 program on an Invitrogen iBlot dry transfer system. Membranes were then blocked for one hour using 5% nonfat dry milk in TBS-T, washed three times with TBS-T and probed with primary antibody diluted with 5% BSA in TBS-T overnight at 4° C. with gentle rocking. Primary antibody was removed, and membranes were washed three times with TBS-T followed by secondary antibody diluted in TBS-T at room temperature for one hour with gentle rocking. […] Secondary antibodies used were anti-mouse-HRP (Kindle Biosciences #R1005) and anti-rabbit-HRP (Kindle Biosciences #R1006). Analysis was conducted using ImageJ (NIH Bethesda, MD) and normalized to the housekeeping protein β-actin.

[5] = tested on: BM-MDSCs; assay: MDSC suppression assay; format: cell-based, mouse; details: for percent proliferation of CD3 T cells co-cultured with treated BM-MDSCs: DMSO control 40.73%
Description: 24-well plates were coated with […] anti-mouse CD3e and anti-mouse CD28 resuspended in PBS for two hours at 37° C., 5% C02. PBS containing coating antibodies were then removed and 1×10^6 naïve CFSE CD3 T cells in 1 ml was added to each well. Treated BM-MDSCs were removed using a rubber policeman. […] Cells were harvested and stained following the immune profiling by flow cytometry method. MDSC suppressive capacity was measured by their ability to inhibit CD3 T cell proliferation measured by CFSE dilution.

[6] = tested on: CD8 T cells; assay: CD8 T cell activation markers by flow cytometry; format: cell-based, mouse; details: 72 hours
Description: as §1, with “duration. […] After staining, cells were pelleted, resuspended and run by a BD FACSymphony A3 flow cytometer.” for “duration.”

[7] = tested on: CD4 T cells; assay: CD4 T cell differentiation by flow cytometry; format: cell-based, mouse; details: 72 hours; for naïve CD4 T cell compartment, reduction vs DMSO: trend not found to be significant
Description: as §1, with “duration. […] After staining, cells were pelleted, resuspended and run by a BD FACSymphony A3 flow cytometer.” for “duration.”

[8] = tested on: CD8 T cells; assay: 2-NBDG glucose analog uptake assay; format: cell-based, mouse; details: 72 hours
Description: as §1
Treated CD3 T cells were prepared following the in vitro T cell activation method and incubated for 72 hours at 37° C., 5% CO2. […] (Thermo #N13195) Cells were then incubated for one hour at 37° C., 5% CO2. After incubation, T cells were washed, pelleted and stained with anti-CD4, anti-CD8, anti-CD3 following the immune profiling by flow cytometry method. Percent uptake was calculated using mean fluorescent intensity (MFI).

[9] = interstitial pulmonary fibrosis; cited from earlier work

For `O=c1nc(OC[C@@H]2COCCO2)cc2n1CCc1cc(C#CC3CC3)ccc1-2` [GLPG1205, 9-Cyclopropylethynyl-2-((S)-1-[1,4]dioxan-2-ylmethoxy)-6,7-dihydropyrimido[6,1-a]isoquinolin-4-one], which “CD8 T cell proliferation, Log2 fold change compared DMSO control” value ([1]; 3 μM) is on record?
Its value is 0.48 Log2 fold change.

And the “CD8 T cell proliferation, increase vs DMSO” value ([1]; 3 μM)?
The value was 39.3%.

And the “CD8 T cell proliferation, Log2 fold change compared DMSO control” value ([1]; 10 μM)?
Its value is 0.78 Log2 fold change.

What about the “CD8 T cell proliferation, increase vs DMSO” value ([1]; 10 μM) of the same compound?
Its value is 71.7%.

What about the “granzyme B protein production, increase compared to DMSO” value ([2]; 3 μM) of the same compound?
Its value is 3.57 times.

And the “granzyme B, Log2 fold change compared to DMSO” value ([2]; 3 μM)?
Its value is 1.84 Log2 fold change.

What about the “perforin production, increase compared to DMSO” value ([2]; 3 μM) of the same compound?
Its value is 3.09 times.

What about the “perforin, Log2 fold change compared to DMSO” value ([2]; 3 μM) of the same compound?
Its value is 1.62 Log2 fold change.

What about the “granzyme B protein production, increase compared to DMSO” value ([2]; 10 μM) of the same compound?
The value was 4.04 times.

What about the “granzyme B, Log2 fold change compared to DMSO” value ([2]; 10 μM) of the same compound?
Its value is 2.01 Log2 fold change.

What about the “perforin production, increase compared to DMSO” value ([2]; 10 μM) of the same compound?
Its value is 3.86 times.

And the “perforin, Log2 fold change compared to DMSO” value ([2]; 10 μM)?
Its value is 1.95 Log2 fold change.

And the “expression of Granzyme B and Perforin (western blot)” value ([2]; activated T cells, high doses (FIG. 5))?
Its value is “dramatically increases the expression of Granzyme B and perforin”.

And the “CD4 apoptosis (Annexin/PI)” value [3]?
The value was “did not elicit any significant changes”.

And the “arginase-I levels, reduction compared to DMSO” value ([4]; 3 μM)?
Its value is 1.79 times.

And the “iNOS production, reduction compared to DMSO” value ([4]; 3 μM)?
The value was 1.5 times.

And the “arginase-I levels, reduction compared to DMSO” value ([4]; 10 μM)?
The value was 2.75 times.

What about the “iNOS production, reduction compared to DMSO” value ([4]; 10 μM) of the same compound?
Its value is 1.35 times.

What about the “expression of Arginase 1 and iNOS (Western blot)” value ([4]; bone marrow derived murine MDSC, descending concentrations (FIG. 4)) of the same compound?
Its value is “decreases the expression of Arginase 1 protein”.

And the “percent proliferation of CD3 T cells co-cultured with treated BM-MDSCs” value ([5]; BM-MDSCs treated with 3 μM)?
Its value is 64.99%.

What about the “percent proliferation of CD3 T cells co-cultured with treated BM-MDSCs” value ([5]; BM-MDSCs treated with 10 μM) of the same compound?
Its value is 62.49%.

And the “T cell proliferation in mixed culture of MDSC and T cells” value ([5]; FIG. 6 Panel A)?
Its value is “allows T cells to proliferate (multiply) better”.

And the “CD25 expression, increase vs DMSO” value ([6]; 3 μM)?
Its value is 21%.

And the “CD69 expression, increase vs DMSO” value ([6]; 3 μM)?
Its value is 11.24%.

What about the “CTLA-4, increase vs DMSO” value ([6]; 3 μM) of the same compound?
Its value is 50.31%.

What about the “LAG-3, increase vs DMSO” value ([6]; 3 μM) of the same compound?
Its value is 11.72%.

And the “PD-1, increase vs DMSO” value ([6]; 3 μM)?
Its value is 10.02%.

What about the “intracellular IFNγ, increase vs DMSO” value ([6]; 3 μM) of the same compound?
The value was 51.23%.

What about the “CD25 expression, increase vs DMSO” value ([6]; 10 μM) of the same compound?
The value was 25.58%.

And the “CD69 expression, increase vs DMSO” value ([6]; 10 μM)?
Its value is 14.59%.

What about the “CTLA-4, increase vs DMSO” value ([6]; 10 μM) of the same compound?
Its value is 81.92%.

And the “LAG-3, increase vs DMSO” value ([6]; 10 μM)?
Its value is 13.15%.

And the “PD-1, increase vs DMSO” value ([6]; 10 μM)?
Its value is 13.91%.

What about the “intracellular IFNγ, increase vs DMSO” value ([6]; 10 μM) of the same compound?
Its value is 61.55%.

And the “effector/memory CD4 T cells, increase compared to DMSO control” value ([7]; 3 μM)?
The value was 31.55%.

And the “naïve CD4 T cell compartment, reduction vs DMSO” value ([7]; 3 μM)?
The value was 41.57%.

And the “effector/memory CD4 T cells, increase compared to DMSO control” value ([7]; 10 μM)?
The value was 39.79%.

And the “naïve CD4 T cell compartment, reduction vs DMSO” value ([7]; 10 μM)?
Its value is 45.61%.

What about the “2-NBDG uptake (MFI), Log2 fold change compared to DMSO control” value ([8]; 3 μM) of the same compound?
Its value is 0.19 Log2 fold change.

What about the “2-NBDG uptake, increase vs DMSO” value ([8]; 3 μM) of the same compound?
Its value is 13.92%.

And the “2-NBDG uptake (MFI), Log2 fold change compared to DMSO control” value ([8]; 10 μM)?
Its value is 0.24 Log2 fold change.

What about the “2-NBDG uptake, increase vs DMSO” value ([8]; 10 μM) of the same compound?
The value was 17.74%.

What about the “fibrosis, over the standard of care” value [9] of the same compound?
Its value is “non-significant reduction in fibrosis”.
